Data on 29 compounds can be found in patent US20090137549A1, “Novel compounds useful for the treatment of degenerative & inflamatory diseases” (priority 2006, published 2009).

The test deals with PDE1A (Homo sapiens, UniProt P54750). Nature of the test: PDE1A dose response, Cyclic Nucleotide Phosphodiesterase Assay Kit from Biomol (colorimetric). The class given is biochemical. Particulars: purified PDE1A enzyme, 100 μM cAMP. The text has this: For the dose response and further screening, we used the Cyclic Nucleotide
Phosphodiesterase Assay Kit from Biomol, a colorimetric, non-radioactive assay. The basis for the assay is the cleavage of cAMP by PDE1A. The 5′AMP is further cleaved into the nucleoside and phosphate by the enzyme 5′-nucleotidase (catnr KI-307). The phosphate released due to enzymatic cleavage is quantified using BIOMOL GREEN™ reagent (catnr AK-111) in a modified Malachite Green assay^1,2. A PDE1A inhibitor will result in a decrease of the signal.
For the enzymatic reaction a mix of 25 μL with purified PDE1A enzyme, 100 μM cAMP, 5′Nucleotidase and the compound is made in a clear 384-plate. The reaction buffer is Tris 20 mM pH 7.4, 4 μg/mL calmodulin, 3 mM MgCl2, 1.5 mM CaCl2, 0.2 mg/mL BSA and 0.001% Brij-35. After an incubation of 45 minutes at 37° C., the reaction is stopped by the addition of 50 μL BIOMOL GREEN™ reagent. After 30 minutes incubation at room temperature, the readout is performed on the Envision (absorption at 615 nm).
All compounds are tested in duplicate starting from […] followed by a 1/3 serial dilution, 8 points (20 μM-6.67 μM-2.22 μM-740 nM-247 nM-82 nM-27 nM-9 nM) in a final concentration of 1% DMSO. As the positive dose response control compound Vardenafil is used. For the calculation of z′ and PIN values 10 μM Vardenafil is used as positive control (100% inhibition) and 1% DMSO as negative control (0% inhibition).
The following compounds have been or can be prepared according to the synthetic methods described above. For the purpose of Table 7 below, PDE1A activity of each compound, which can be determined using the assay methods described herein, is expressed as follows: […]
In turn, `Cc1nn(C2CCCCC2)c2nc(C3CCCN(S(=O)(=O)c4ccccc4OC(F)(F)F)C3)[nH]c(=O)c12` (centres unmarked) [Example 107, 1-cyclohexyl-3-methyl-6-(1-(2-(trifluoromethoxy)phenylsulfonyl)piperidin-3-yl)-1H-pyrazolo[3,4-d]pyrimidin-4(5H)-one] yielded an IC50 of 1000 to 1500 nM.
Next, `COc1cccc(C(=O)N2CCCC(c3nc4c(c(C)nn4-c4ccccc4)c(=O)[nH]3)C2)c1` (centres unmarked) [Example 81, 6-(1-(3-methoxybenzoyl)piperidin-3-yl)-3-methyl-1-phenyl-1H-pyrazolo[3,4-d]pyrimidin-4(5H)-one]: 501 to 1000 nM; `O=c1[nH]c(C2CCCN(c3ccc([N+](=O)[O-])cn3)C2)nc2c1cnn2C1CCCCC1` (centres unmarked) [Example 153, 1-cyclohexyl-6-(1-(5-nitropyridin-2-yl)piperidin-3-yl)-1H-pyrazolo[3,4-d]pyrimidin-4(5H)-one]: 1000 to 1500 nM; `COc1ccc(S(=O)(=O)N2CCCC(c3nc4c(cnn4-c4ccccc4)c(=O)[nH]3)C2)cc1` (centres unmarked) [Example 46, 6-(1-(4-methoxyphenylsulfonyl)piperidin-3-yl)-1-phenyl-1H-pyrazolo[3,4-d]pyrimidin-4(5H)-one]: 101 to 500 nM.
The same measure for `CS(=O)(=O)N1CCC(NC(=O)N2CC(c3nc4c(cnn4C4CCCCC4)c(=O)[nH]3)C2)CC1` [Example 40, 3-(1-cyclohexyl-4-oxo-4,5-dihydro-1H-pyrazolo[3,4-d]pyrimidin-6-yl)-N-(1-(methylsulfonyl)piperidin-4-yl)azetidine-1-carboxamide]: 1 to 100 nM; for `Cc1nn(C2CCCCC2)c2nc(C3CCCN(C(=O)c4ccccc4)C3)[nH]c(=O)c12` (centres unmarked) [Example 89, 6-(1-benzoylpiperidin-3-yl)-1-cyclohexyl-3-methyl-1H-pyrazolo[3,4-d]pyrimidin-4(5H)-one]: 501 to 1000 nM; for `COc1cccc(N2CC(c3nc4c(cnn4C4CCCCC4)c(=O)[nH]3)C2)c1` [Example 166, 1-cyclohexyl-6-(1-(3-methoxyphenyl)azetidin-3-yl)-1H-pyrazolo[3,4-d]pyrimidin-4(5H)-one]: 101 to 500 nM.
`O=c1[nH]c(C2CCCN(S(=O)(=O)c3ccc(OC(F)(F)F)cc3)C2)nc2c1cnn2C1CCCCC1` (centres unmarked) [Example 105, 1-cyclohexyl-6-(1-(4-(trifluoromethoxy)phenylsulfonyl)piperidin-3-yl)-1H-pyrazolo[3,4-d]pyrimidin-4(5H)-one] displayed an IC50 of 1000 to 1500 nM.
The compound `COc1cccc(S(=O)(=O)N2CCCC(c3nc4c(cnn4C4CCCCC4)c(=O)[nH]3)C2)c1` (centres unmarked) [Example 79, 1-cyclohexyl-6-(1-(3-methoxyphenylsulfonyl)piperidin-3-yl)-1H-pyrazolo[3,4-d]pyrimidin-4(5H)-one] had an IC50 of 501 to 1000 nM.
Next, `CCCCCS(=O)(=O)N1CC(c2nc3c(cnn3C3CCCCC3)c(=O)[nH]2)C1` [Example 104, 1-cyclohexyl-6-(1-(pentylsulfonyl)azetidin-3-yl)-1H-pyrazolo[3,4-d]pyrimidin-4(5H)-one]: 1000 to 1500 nM.
Turning to `Cn1cncc1CNC(=O)N1CC(c2nc3c(cnn3C3CCCCC3)c(=O)[nH]2)C1` [Example 74, 3-(1-cyclohexyl-4-oxo-4,5-dihydro-1H-pyrazolo[3,4-d]pyrimidin-6-yl)-N-((1-methyl-1H-imidazol-5-yl)methyl)azetidine-1-carboxamide], the IC50 is 101 to 500 nM.
The compound `CC(C)(C)n1ncc2c(=O)[nH]c(C3CN(CC(=O)c4ccccc4)C3)nc21` [Example 174, 1-tert-Butyl-6-(1-(2-oxo-2-phenylethyl)azetidin-3-yl)-1H-pyrazolo[3,4-d]pyrimidin-4(5H)-one] yielded an IC50 of 101 to 500 nM.
The same measure for `O=C(Nc1ccc(F)cc1)N1CC(c2nc3c(cnn3C3CCCCC3)c(=O)[nH]2)C1` [Example 19, 3-(1-cyclohexyl-4-oxo-4,5-dihydro-1H-pyrazolo[3,4-d]pyrimidin-6-yl)-N-(4-fluorophenyl)azetidine-1-carboxamide]: 1 to 100 nM.
The same measure for `COc1ccc(S(=O)(=O)N2CCCC(c3nc4c(c(C)nn4-c4ccccc4)c(=O)[nH]3)C2)cc1` (centres unmarked) [Example 75, 6-(1-(4-methoxyphenylsulfonyl)piperidin-3-yl)-3-methyl-1-phenyl-1H-pyrazolo[3,4-d]pyrimidin-4(5H)-one]: 101 to 500 nM; for `CC(C)(C)OC(=O)N1CCC(NC(=O)N2CC(c3nc4c(cnn4C4CCCCC4)c(=O)[nH]3)C2)CC1` [Example 41, tert-butyl 4-(3-(1-cyclohexyl-4-oxo-4,5-dihydro-1H-pyrazolo[3,4-d]pyrimidin-6-yl)azetidine-1-carboxamido)piperidine-1-carboxylate]: 1 to 100 nM.
As to `COc1ccc(S(=O)(=O)N2CCCC(c3nc4c(cnn4C4CCCCC4)c(=O)[nH]3)C2)cc1` (centres unmarked) [Example 51, 1-cyclohexyl-6-(1-(4-methoxyphenylsulfonyl)piperidin-3-yl)-1H-pyrazolo[3,4-d]pyrimidin-4(5H)-one], the IC50 lay within 101 to 500 nM.
The same measure for `Cc1nn(C2CCCCC2)c2nc(C3CCCN(C(=O)c4ccccc4Cl)C3)[nH]c(=O)c12` (centres unmarked) [Example 91, 6-(1-(2-chlorobenzoyl)piperidin-3-yl)-1-cyclohexyl-3-methyl-1H-pyrazolo[3,4-d]pyrimidin-4(5H)-one]: 501 to 1000 nM; for `N#Cc1ccc(C(=O)N2CCCC(c3nc4c(cnn4-c4ccccc4)c(=O)[nH]3)C2)cc1` (centres unmarked) [Example 110, 4-(3-(4-oxo-1-phenyl-4,5-dihydro-1H-pyrazolo[3,4-d]pyrimidin-6-yl)piperidine-1-carbonyl)benzonitrile]: 1000 to 1500 nM.
The same measure for `Cc1nn(C2CCCCC2)c2nc(C3CN(C(=O)N(C)Cc4ccc(F)cc4)C3)[nH]c(=O)c12` [Example 170, 3-(1-Cyclohexyl-3-methyl-4-oxo-4,5-dihydro-1H-pyrazolo[3,4-d]pyrimidin-6-yl)-N-(4-fluorobenzyl)-N-methylazetidine-1-carboxamide]: 101 to 500 nM; for `CC(C)(C)OC(=O)N1CCCC(NC(=O)N2CC(c3nc4c(cnn4C4CCCCC4)c(=O)[nH]3)C2)C1` (centres unmarked) [Example 26, tert-butyl 3-(3-(1-cyclohexyl-4-oxo-4,5-dihydro-1H-pyrazolo[3,4-d]pyrimidin-6-yl)azetidine-1-carboxamido)piperidine-1-carboxylate]: 1 to 100 nM.
The compound `Cc1nn(C2CCCCC2)c2nc(C3CCCN(C(=O)c4cccs4)C3)[nH]c(=O)c12` (centres unmarked) [Example 101, 1-cyclohexyl-3-methyl-6-(1-(thiophene-2-carbonyl)piperidin-3-yl)-1H-pyrazolo[3,4-d]pyrimidin-4(5H)-one] showed an IC50 of 1000 to 1500 nM.
The same measure for `Cc1nn(-c2ccc(F)cc2)c2nc(C3CN(C(=O)NC4CCCCC4)C3)[nH]c(=O)c12` [Example 50, N-cyclohexyl-3-(1-(4-fluorophenyl)-3-methyl-4-oxo-4,5-dihydro-1H-pyrazolo[3,4-d]pyrimidin-6-yl)azetidine-1-carboxamide]: 101 to 500 nM; for `Cc1nn(-c2ccc(F)cc2)c2nc(C3CN(C(=O)Nc4ccccc4OC(F)F)C3)[nH]c(=O)c12` [Example 29, N-(2-(difluoromethoxy)phenyl)-3-(1-(4-fluorophenyl)-3-methyl-4-oxo-4,5-dihydro-1H-pyrazolo[3,4-d]pyrimidin-6-yl)azetidine-1-carboxamide]: 1 to 100 nM; for `COc1ccccc1C(=O)N1CCCC(c2nc3c(c(C)nn3C3CCC3)c(=O)[nH]2)C1` (centres unmarked) [Example 82, 1-cyclobutyl-6-(1-(2-methoxybenzoyl)piperidin-3-yl)-3-methyl-1H-pyrazolo[3,4-d]pyrimidin-4(5H)-one]: 501 to 1000 nM.
The same measure for `Cc1nn(C2CCCCC2)c2nc(C3CCCN(C(=O)c4ccccc4F)C3)[nH]c(=O)c12` (centres unmarked) [Example 92, 1-cyclohexyl-6-(1-(2-fluorobenzoyl)piperidin-3-yl)-3-methyl-1H-pyrazolo[3,4-d]pyrimidin-4(5H)-one]: 501 to 1000 nM; for `O=C(Nc1ccc(OC(F)(F)F)cc1)N1CC(c2nc3c(cnn3C3CCCCC3)c(=O)[nH]2)C1` [Example 25, 3-(1-cyclohexyl-4-oxo-4,5-dihydro-1H-pyrazolo[3,4-d]pyrimidin-6-yl)-N-(4-(trifluoromethoxy)phenyl)azetidine-1-carboxamide]: 1 to 100 nM.
Take `N#Cc1ccc(N2CC(c3nc4c(cnn4C4CCCCC4)c(=O)[nH]3)C2)cc1` [Example 148, 4-(3-(1-cyclohexyl-4-oxo-4,5-dihydro-1H-pyrazolo[3,4-d]pyrimidin-6-yl)azetidin-1-yl)benzonitrile]: the IC50 was 1 to 100 nM.
Consider `O=c1[nH]c(C2CN(Cc3nc4ccccc4s3)C2)nc2c1cnn2C1CCCCC1` [Example 172, 6-(1-(Benzo[d]thiazol-2-ylmethyl)azetidin-3-yl)-1-cyclohexyl-1H-pyrazolo[3,4-d]pyrimidin-4(5H)-one], for which the IC50 was in the range of 501 to 1000 nM.
The same measure for `Cc1nn(C2CCCCC2)c2nc(C3CCCN(C(=O)c4cccc5c4OC(F)(F)O5)C3)[nH]c(=O)c12` (centres unmarked) [Example 58, 1-cyclohexyl-6-(1-(2,2-difluorobenzo[d][1,3]dioxole-4-carbonyl)piperidin-3-yl)-3-methyl-1H-pyrazolo[3,4-d]pyrimidin-4(5H)-one]: 101 to 500 nM.

The IC50 is the concentration needed to halve the response being measured.
